Reference: US7235560B2, “Pyrimidine derivative as selective COX-2 inhibitors” (priority 2002, dated 2007)

Assays:
microsomal h-COX2 = molecular target: T1, microsomal h-COX2 (Homo sapiens, UniProt P35354); experiment: Microsomal assay, inhibition of h-COX2 (PGE2 by EIA); assay type: biochemical; details: microsomal preparation from baculovirus infected SF9 cells; 1 hour preincubation; 0.1 μM arachidonic acid; read-out: COX-2: IC50
T1 construct: made in house; host or cells: baculovirus infected SF9 cells (microsomal preparation)
T1 sequence (P35354 18-604): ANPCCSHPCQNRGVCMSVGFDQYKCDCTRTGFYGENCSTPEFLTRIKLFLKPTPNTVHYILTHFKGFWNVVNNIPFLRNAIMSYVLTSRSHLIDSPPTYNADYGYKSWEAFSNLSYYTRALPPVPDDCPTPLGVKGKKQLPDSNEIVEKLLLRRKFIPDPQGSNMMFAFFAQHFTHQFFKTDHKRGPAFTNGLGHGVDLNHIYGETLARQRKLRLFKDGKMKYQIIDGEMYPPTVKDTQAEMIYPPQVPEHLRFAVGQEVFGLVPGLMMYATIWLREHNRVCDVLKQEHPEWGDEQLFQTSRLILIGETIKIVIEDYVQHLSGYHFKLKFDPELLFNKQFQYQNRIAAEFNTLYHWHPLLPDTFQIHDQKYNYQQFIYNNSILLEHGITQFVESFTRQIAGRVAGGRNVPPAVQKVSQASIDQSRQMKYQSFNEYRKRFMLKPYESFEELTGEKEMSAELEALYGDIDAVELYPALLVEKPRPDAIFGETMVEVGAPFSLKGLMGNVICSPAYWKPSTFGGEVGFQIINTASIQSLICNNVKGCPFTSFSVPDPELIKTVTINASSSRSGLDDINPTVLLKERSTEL
Description: Inhibitory activity against microsomal h-COX2 was assessed against a microsomal preparation from baculovirus infected SF9 cells. An aliquot of microsomal preparation was thawed slowly on ice and a 1/40,000 dilution prepared from it into the assay buffer (sterile water, degassed with argon containing 100 mM HEPES (pH 7.4), 10 mM EDTA (pH7.4), 1 mM phenol, 1 mM reduced glutathione, 20 mg/ml gelatin and 0.001 mM Hematin). Once diluted the enzyme solution was then sonicated for 5 seconds (Branson sonicator, setting 4, 1 cm tip) to ensure a homogeneous suspension. 155 μl enzyme solution was then added to each well of a 96-well microtitre plate containing either 5 μl test compound (40× required test concentration) or 5 μl DMSO for controls. Plates were then mixed and incubated at room temperature for 1 hour. Following the incubation period, 40 μl of 0.5 μM arachidonic acid was added to each well to give a final concentration of 0.1 μM. Plates were then mixed and incubated for exactly 10 minutes (room temperature) prior to addition of 25 μl 1M HCl (hydrochloric acid) to each well to stop the reaction. 25 μl of 1M NaOH (sodium hydroxide) was then added to each well to neutralise the solution prior to determination of PGE2 levels by enzyme immunoassay (EIA).
The following IC50 values for inhibition of COX-2 and COX-1 were obtained from the microsomal assay for compounds of the invention: […]

COX-1 = COX-1 (Homo sapiens, UniProt P23219); experiment: Microsomal assay, inhibition of COX-1; assay type: biochemical
Sequence of COX-1 (P23219 24-599): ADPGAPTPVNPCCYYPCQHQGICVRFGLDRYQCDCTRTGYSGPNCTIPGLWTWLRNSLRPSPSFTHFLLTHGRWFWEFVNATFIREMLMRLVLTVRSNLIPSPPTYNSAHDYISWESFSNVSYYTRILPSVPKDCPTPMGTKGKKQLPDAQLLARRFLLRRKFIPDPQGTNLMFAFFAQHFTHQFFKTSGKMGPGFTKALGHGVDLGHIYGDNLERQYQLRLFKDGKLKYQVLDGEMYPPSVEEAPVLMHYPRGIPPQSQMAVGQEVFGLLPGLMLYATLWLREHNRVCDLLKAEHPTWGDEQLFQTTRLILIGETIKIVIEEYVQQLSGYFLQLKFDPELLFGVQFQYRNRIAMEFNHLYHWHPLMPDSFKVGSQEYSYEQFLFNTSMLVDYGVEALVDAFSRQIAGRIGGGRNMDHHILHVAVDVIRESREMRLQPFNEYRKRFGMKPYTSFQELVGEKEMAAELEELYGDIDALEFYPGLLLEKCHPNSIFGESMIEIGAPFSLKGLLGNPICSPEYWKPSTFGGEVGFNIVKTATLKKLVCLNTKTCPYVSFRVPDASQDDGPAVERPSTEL

| Compound | IC50 (microsomal h-COX2) | IC50 (COX-1) |
| --- | --- | --- |
| Cc1cc(-c2ccc(S(C)(=O)=O)cn2)nc(NCc2ccccc2)n1 [Example 1] | 51 nM | 23100 nM |
| Cc1cccc(CN(C)c2nc(-c3ccc(S(C)(=O)=O)cn3)cc(C(F)(F)F)n2)n1 [Example 3, [4-(5-Methanesulfonyl-pyridin-2-yl)-6-trifluoromethyl-pyrimidin-2-yl]-methyl-(6-methyl-pyridin-2-ylmethyl)-amine] | 5 nM | 67100 nM |
| CS(=O)(=O)c1ccc(-c2cc(C(F)(F)F)nc(NC3CCCCC3)n2)nc1 [Example 5, Cyclohexyl-[4-(5-methanesulfonyl-pyridin-2-yl)-6-trifluoromethyl-pyrimidin-2-yl]-amine] | 19 nM | > 100000 nM |
